pIC50: −log10 of the molar value. Read-outs that look alike come from different tables or passages of the source.
Assays:
MOLT-4 = experiment: Cell viability assay (MTS) in MOLT-4 cells; type: cell-based; conditions: Homo sapiens, MOLT-4
Protocol: (§1) Acute lymphoblastic leukemia cells (MOLT-4 and RS4; 11) were incubated with increasing concentrations of Bcl-xL degraders for 48 h. Cell viability was measured by tetrazolium-based MTS assay.

RS4; 11 = experiment: Cell viability assay (MTS) in RS4; 11 cells; type: cell-based; conditions: Homo sapiens, RS4-11
Protocol: as §1

[1] = Table 2, 48 hr, MTS, read-out: Anti-Cancer Activity IC50 (48 hr) MOLT-4
[2] = Table 2, 48 hr, MTS, read-out: Anti-Cancer Activity IC50 (48 hr) RS4, 11
[3] = Table 2A, 48 hr, MTS, read-out: Anti-Cancer Activity IC50 (48 hr) MOLT-4
[4] = Table 2A, 48 hr, MTS, read-out: Anti-Cancer Activity IC50 (48 hr) RS4, 11

SMILES	pIC50 (MOLT-4; [1])	pIC50 (RS4; 11; [2])	also measured
Cc1ncsc1-c1ccc([C@H](C)NC(=O)[C@@H]2C[C@@H](O)CN2C(=O)[C@@H](NC(=O)CCCCCCC(=O)N2CCN(CC3(C)CCC(c4ccc(Cl)cc4)=C(CN4CCN(c5ccc(C(=O)NS(=O)(=O)c6ccc(N[C@H](CCN7C[C@H]8C[C@@H]7CO8)CSc7ccccc7)c([N+](=O)[O-])c6)cc5)CC4)C3)CC2)C(C)(C)C)cc1 (stereo partly drawn) [Compound 52, (2S,4R)-1-((2S)-2-(8-(4-((6-((4-(4-(((4-(((R)-4-((1R,4R)-2-oxa-5-azabicyclo[2.2.1]heptan-5-yl)-1-(phenylthio)butan-2-yl)amino)-3-nitrophenyl)sulfonyl)carbamoyl)phenyl)piperazin-1-yl)methyl)-4′-chloro-4-methyl-2,3,4,5-tetrahydro-[1,1′-biphenyl]-4-yl)methyl)piperazin-1-yl)-8-oxooctanamido)-3,3-dimethylbutanoyl)-4-hydroxy-N—((S)-1-(4-(4-methylthiazol-5-yl)phenyl)ethyl)pyrrolidine-2-carboxamide]	> 7.70	> 7.70	pIC50 (MOLT-4; Table 5, 48 h, read-out: MOLT-4 48 h IC50): 7.82; pIC50 (RS4; 11; Table 5, 48 h, read-out: RS4 48 h IC50): 8.55
Cc1ncsc1-c1ccc([C@H](C)NC(=O)[C@@H]2C[C@@H](O)CN2C(=O)[C@@H](NC(=O)CCCCCCC(=O)N2CCN(CC3(C)CCC(c4ccc(Cl)cc4)=C(CN4CCN(c5ccc(C(=O)NS(=O)(=O)c6ccc(N[C@H](CCN(CCO)C7CC7)CSc7ccccc7)c([N+](=O)[O-])c6)cc5)CC4)C3)CC2)C(C)(C)C)cc1 (stereo partly drawn) [Compound 44, (2S,4R)-1-((2S)-2-(8-(4-((4′-chloro-6-((4-(4-(((4-(((R)-4-(cyclopropyl(2-hydroxyethyl)amino)-1-(phenylthio)butan-2-yl)amino)-3-nitrophenyl)sulfonyl)carbamoyl)phenyl)piperazin-1-yl)methyl)-4-methyl-2,3,4,5-tetrahydro-[1,1′-biphenyl]-4-yl)methyl)piperazin-1-yl)-8-oxooctanamido)-3,3-dimethylbutanoyl)-4-hydroxy-N—((S)-1-(4-(4-methylthiazol-5-yl)phenyl)ethyl)pyrrolidine-2-carboxamide]	6.30 to 7.00	7.00 to 7.70	
Cc1ncsc1-c1ccc([C@H](C)NC(=O)[C@@H]2C[C@@H](O)CN2C(=O)[C@@H](NC(=O)CCCCCCC(=O)N2CCN(CC3(C)CCC(c4ccc(Cl)cc4)=C(CN4CCN(c5ccc(C(=O)NS(=O)(=O)c6ccc(N[C@H](CCN(C)C)CSc7ccccc7)c([N+](=O)[O-])c6)cc5)CC4)C3)CC2)C(C)(C)C)cc1 (stereo partly drawn) [Compound 34, (2S,4R)-1-((2S)-2-(8-(4-((4′-chloro-6-((4-(4-(((4-(((R)-4-(dimethylamino)-1-(phenylthio)butan-2-yl)amino)-3-nitrophenyl)sulfonyl)carbamoyl)phenyl)piperazin-1-yl)methyl)-4-methyl-2,3,4,5-tetrahydro-[1,1′-biphenyl]-4-yl)methyl)piperazin-1-yl)-8-oxooctanamido)-3,3-dimethylbutanoyl)-4-hydroxy-N—((S)-1-(4-(4-methylthiazol-5-yl)phenyl)ethyl)pyrrolidine-2-carboxamide]	> 7.70	> 7.70	
Cc1ncsc1-c1ccc([C@H](C)NC(=O)[C@@H]2C[C@@H](O)CN2C(=O)[C@@H](NC(=O)CN(C)CCC(=O)N2CCC(C3CCN(C[C@]4(C)CCC(c5ccc(Cl)cc5)=C(CN5CCN(c6ccc(C(=O)NS(=O)(=O)c7ccc(N[C@H](CCN8CCCOCC8)CSc8ccccc8)c(S(=O)(=O)C(F)(F)F)c7)cc6)CC5)C4)CC3)CC2)C(C)(C)C)cc1 [Compound 117]			pIC50 (MOLT-4; [3]): 7.00 to 7.70; pIC50 (RS4; 11; [4]): > 7.70
Cc1ncsc1-c1ccc([C@H](C)NC(=O)[C@@H]2C[C@@H](O)CN2C(=O)[C@@H](NC(=O)CCCCCCCCC(=O)N2CCN(CCC3(C)CCC(c4ccc(Cl)cc4)=C(CN4CCN(c5ccc(C(=O)NS(=O)(=O)c6ccc(N[C@H](CCN7CCOCC7)CSc7ccccc7)c(S(=O)(=O)C(F)(F)F)c6)cc5)CC4)C3)CC2)C(C)(C)C)cc1 (stereo partly drawn) [Compound 30, (2S,4R)-1-((2S)-2-(10-(4-(2-(4′-chloro-4-methyl-6-((4-(4-(((4-(((R)-4-morpholino-1-(phenylthio)butan-2-yl)amino)-3-((trifluoromethyl)sulfonyl)phenyl)sulfonyl)carbamoyl)phenyl)piperazin-1-yl)methyl)-2,3,4,5-tetrahydro-[1,1′-biphenyl]-4-yl)ethyl)piperazin-1-yl)-10-oxodecanamido)-3,3-dimethylbutanoyl)-4-hydroxy-N—((S)-1-(4-(4-methylthiazol-5-yl)phenyl)ethyl)pyrrolidine-2-carboxamide]	6.30 to 7.00	7.00 to 7.70	
Cc1ncsc1-c1ccc([C@H](C)NC(=O)[C@@H]2C[C@@H](O)CN2C(=O)[C@@H](NC(=O)CNC(=O)c2ccc(N3CCN(CC4(C)CCC(c5ccc(Cl)cc5)=C(CN5CCN(c6ccc(C(=O)NS(=O)(=O)c7ccc(N[C@H](CCN8CCOCC8)CSc8ccccc8)c(S(=O)(=O)C(F)(F)F)c7)cc6)CC5)C4)CC3)cc2)C(C)(C)C)cc1 (stereo partly drawn) [Compound 10, (2S,4R)-1-((2S)-2-(2-(4-(4-((4′-chloro-4-methyl-6-((4-(4-(((4-(((R)-4-morpholino-1-(phenylthio)butan-2-yl)amino)-3-((trifluoromethyl)sulfonyl)phenyl)sulfonyl)carbamoyl)phenyl)piperazin-1-yl)methyl)-2,3,4,5-tetrahydro-[1,1′-biphenyl]-4-yl)methyl)piperazin-1-yl)benzamido)acetamido)-3,3-dimethylbutanoyl)-4-hydroxy-N—((S)-1-(4-(4-methylthiazol-5-yl)phenyl)ethyl)pyrrolidine-2-carboxamide]	6.30 to 7.00	6.30 to 7.00	
Cc1ncsc1-c1ccc([C@H](C)NC(=O)[C@@H]2C[C@@H](O)CN2C(=O)[C@@H](NC(=O)CCS(=O)(=O)N2CCN(C[C@]3(C)CCC(c4ccc(Cl)cc4)=C(CN4CCN(c5ccc(C(=O)NS(=O)(=O)c6ccc(N[C@H](CCN7CCCOCC7)CSc7ccccc7)c(S(=O)(=O)C(F)(F)F)c6)cc5)CC4)C3)CC2)C(C)(C)C)cc1 [Compound 109]			pIC50 (MOLT-4; [3]): 6.30 to 7.00; pIC50 (RS4; 11; [4]): 7.00 to 7.70

Further lines, with some results ahead:

pIC50 (MOLT-4; [1])	pIC50 (RS4; 11; [2])	SMILES	also measured
> 7.70	> 7.70	Cc1ncsc1-c1ccc([C@H](C)NC(=O)[C@@H]2C[C@@H](O)CN2C(=O)[C@@H](NC(=O)CCCCCNC(=O)c2ccc(N3CCN(C[C@]4(C)CCC(c5ccc(Cl)cc5)=C(CN5CCN(c6ccc(C(=O)NS(=O)(=O)c7ccc(N[C@H](CCN8C[C@H]9C[C@@H]8CO9)CSc8ccccc8)c(S(=O)(=O)C(F)(F)F)c7)cc6)CC5)C4)CC3)nc2)C(C)(C)C)cc1 [Compound 72]	pIC50 (MOLT-4; Table 4, 48 h, read-out: MOLT-4 48 h IC50): 8.36; pIC50 (RS4; 11; Table 4, 48 h, read-out: RS4 48 h IC50): 8.15
> 7.70	7.00 to 7.70	Cc1ncsc1-c1ccc([C@H](C)NC(=O)[C@@H]2C[C@@H](O)CN2C(=O)[C@@H](NC(=O)CCCCCNC(=O)c2cnc(N3CCN(C[C@]4(C)CCC(c5ccc(Cl)cc5)=C(CN5CCN(c6ccc(C(=O)NS(=O)(=O)c7ccc(N[C@H](CCN8CCCOCC8)CSc8ccccc8)c(S(=O)(=O)C(F)(F)F)c7)cc6)CC5)C4)CC3)nc2)C(C)(C)C)cc1 [Compound 78]	
> 7.70	> 7.70	Cc1ncsc1-c1ccc([C@H](C)NC(=O)[C@@H]2C[C@@H](O)CN2C(=O)[C@@H](NC(=O)CCCCC(=O)N2CCC(C3CCN(CC4(C)CCC(c5ccc(Cl)cc5)=C(CN5CCN(c6ccc(C(=O)NS(=O)(=O)c7ccc(N[C@H](CCN8C[C@H]9C[C@@H]8CO9)CSc8ccccc8)c([N+](=O)[O-])c7)cc6)CC5)C4)CC3)CC2)C(C)(C)C)cc1 (stereo partly shown) [Compound 54]	
> 7.70	> 7.70	Cc1ncsc1-c1ccc([C@H](C)NC(=O)[C@@H]2C[C@@H](O)CN2C(=O)[C@@H](NC(=O)CCCCCNC(=O)c2ccc(N3CCN(C[C@]4(C)CCC(c5ccc(Cl)cc5)=C(CN5CCN(c6ccc(C(=O)NS(=O)(=O)c7ccc(N[C@H](CCN8CCCOCC8)CSc8ccccc8)c(S(=O)(=O)C(F)(F)F)c7)cc6)CC5)C4)CC3)nn2)C(C)(C)C)cc1 [Compound 79]	
6.30 to 7.00	7.00 to 7.70	Cc1ncsc1-c1ccc([C@H](C)NC(=O)[C@@H]2C[C@@H](O)CN2C(=O)[C@@H](NC(=O)CCCCCCC(=O)N2CCN(C[C@]3(C)CCC(c4ccc(Cl)cc4)=C(CN4CCN(c5ccc(C(=O)NS(=O)(=O)c6ccc(N[C@H](CCN7CCc8cccnc8C7)CSc7ccccc7)c([N+](=O)[O-])c6)cc5)CC4)C3)CC2)C(C)(C)C)cc1 [Compound 57, (2S,4R)-1-((S)-2-(8-(4-(((R)-4′-chloro-6-((4-(4-(((4-(((R)-4-(5,8-dihydro-1,7-naphthyridin-7(6H)-yl)-1-(phenylthio)butan-2-yl)amino)-3-nitrophenyl)sulfonyl)carbamoyl)phenyl)piperazin-1-yl)methyl)-4-methyl-2,3,4,5-tetrahydro-[1,1′-biphenyl]-4-yl)methyl)piperazin-1-yl)-8-oxooctanamido)-3,3-dimethylbutanoyl)-4-hydroxy-N—((S)-1-(4-(4-methylthiazol-5-yl)phenyl)ethyl)pyrrolidine-2-carboxamide]	

From patent US20250154141A1 (University of Florida Research Foundation, Incorporated, priority 2021, published 2025)
